From ChEMBL document CHEMBL1201862, “PubChem BioAssay data set” (2004)
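Dose response: 5 concentrations. Exposure: 48 h. Format: 96-well plates. Endpoint: linear interpolation; highest concentration if not reached. Abbreviation: GI50, concentration required for 50% inhibition of growth.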 The source made the active and inactive calls. No stated cut-off is given here; in the data, active = GI50 up to about 1.1 µM and inactive = higher.

Assays:
Test in all cases: DTP human tumour cell line panel, 48 h
[1] = tested on: HCT-116
[2] = tested on: M14
[3] = tested on: SF-268
[4] = tested on: COLO 205
[5] = tested on: LOX IMVI
[6] = tested on: U-251
[7] = tested on: DMS-114
[8] = tested on: UACC-257
[9] = tested on: SN12C
[10] = tested on: NCI-H23
[11] = tested on: 786-0
[12] = tested on: OVCAR-8
[13] = tested on: NCI-H460
[14] = tested on: SNB-78
[15] = tested on: RPMI-8226
[16] = tested on: SK-OV-3
[17] = tested on: MOLT-4
[18] = tested on: A498
[19] = tested on: SK-MEL-5
[20] = tested on: SR

Compound | GI50 [1] | GI50 [2] | GI50 [3] | GI50 [4] | GI50 [5] | GI50 [6] | GI50 [7] | GI50 [8] | GI50 [9] | GI50 [10] | GI50 [11] | GI50 [12] | GI50 [13] | GI50 [14] | GI50 [15] | GI50 [16] | GI50 [17] | GI50 [18] | GI50 [19] | GI50 [20]
CC/C=C/c1cc2c(c3[nH]ccc13)[C@@H](C)CC2C.CC/C=C/c1cc2cc[nH]c2c2c1C(C)C[C@@H]2C.CCc1cc2c(c3[nH]ccc13)[C@@H](C)CC2C (stereo partly drawn) | 18.5 µM (inactive) | 13.5 µM (inactive) | 15.5 µM (inactive) | 20.9 µM (inactive) | 15.6 µM (inactive) | 18 µM (inactive) | 16.8 µM (inactive) | 16 µM (inactive) | 15.1 µM (inactive) | 17.4 µM (inactive) | 17 µM (inactive) | 17.2 µM (inactive) | 15.2 µM (inactive) | 17.2 µM (inactive) |  |  |  |  |  | 
CCCNC(=O)c1cc2ccccc2cc1C(=O)OC | > 100 µM (inactive) | > 100 µM (inactive) | > 100 µM (inactive) | > 100 µM (inactive) |  | > 100 µM (inactive) | > 100 µM (inactive) | > 100 µM (inactive) | > 100 µM (inactive) | > 100 µM (inactive) | > 100 µM (inactive) | > 100 µM (inactive) | > 100 µM (inactive) | > 100 µM (inactive) | 60.8 µM (inactive) | > 100 µM (inactive) | > 100 µM (inactive) | > 100 µM (inactive) | > 100 µM (inactive) | 
CC1CCC2[C@@H](C)COC3O[C@]4(C)CCC1C32OO4 (stereo partly drawn) | > 100 µM (inactive) | > 100 µM (inactive) | > 100 µM (inactive) | > 100 µM (inactive) | > 100 µM (inactive) | > 100 µM (inactive) | > 100 µM (inactive) | > 100 µM (inactive) | > 100 µM (inactive) | > 100 µM (inactive) | > 100 µM (inactive) | > 100 µM (inactive) | > 100 µM (inactive) | > 100 µM (inactive) |  | > 100 µM (inactive) |  | > 100 µM (inactive) | > 100 µM (inactive) | 
CCOC(=O)C(C)Sc1nnc(COc2ccccc2OC)n1-c1ccccc1 (stereo not drawn) | 80.7 µM (inactive) | > 100 µM (inactive) | > 100 µM (inactive) | > 100 µM (inactive) | 15.7 µM (inactive) | > 100 µM (inactive) | 14.1 µM (inactive) | > 100 µM (inactive) | > 100 µM (inactive) | > 100 µM (inactive) | > 100 µM (inactive) | > 100 µM (inactive) | 18.3 µM (inactive) | > 100 µM (inactive) | 23.9 µM (inactive) | > 100 µM (inactive) |  | 0.268 µM (active) | > 100 µM (inactive) | 
CCCCCCCC(=O)OCC1OC(n2cc(F)c(=O)[nH]c2=O)C(N)C(OC(=O)CCCCCCC)C1O (stereo not drawn) | 19.5 µM (inactive) | 17.9 µM (inactive) | 18.5 µM (inactive) | 18.5 µM (inactive) | 18.5 µM (inactive) | 19.5 µM (inactive) |  | 17.8 µM (inactive) | 17.5 µM (inactive) | 20.1 µM (inactive) | 19.4 µM (inactive) | 17.8 µM (inactive) | 19.4 µM (inactive) | 20 µM (inactive) | 23.2 µM (inactive) | 28.8 µM (inactive) | 15.5 µM (inactive) | 20.3 µM (inactive) | 10.5 µM (inactive) | 
Cc1ncc(CCl)c2c1OC(C)(C)OC2 | 25.1 µM (inactive) | 36.4 µM (inactive) | 22.8 µM (inactive) |  | 17.3 µM (inactive) | 14.4 µM (inactive) | > 100 µM (inactive) | 77.1 µM (inactive) | 35.6 µM (inactive) | > 100 µM (inactive) | 20.8 µM (inactive) | 67.1 µM (inactive) | > 100 µM (inactive) | 39.7 µM (inactive) | 37.2 µM (inactive) | > 100 µM (inactive) | 42.5 µM (inactive) | > 100 µM (inactive) |  | 
CCN(CC)CCOC(c1ccccc1)c1ccccc1.CCOC(=O)Nc1ccc(S(=O)(=O)OC)cc1.CCOC(=O)Nc1ccc(S(=O)(=O)OC)cc1.Nc1ccc(C(=O)O)c(O)c1 | > 100 µM (inactive) | > 100 µM (inactive) | > 100 µM (inactive) | > 100 µM (inactive) | > 100 µM (inactive) | > 100 µM (inactive) | > 100 µM (inactive) | > 100 µM (inactive) | > 100 µM (inactive) | > 100 µM (inactive) | > 100 µM (inactive) | > 100 µM (inactive) | > 100 µM (inactive) | > 100 µM (inactive) |  | > 100 µM (inactive) | > 100 µM (inactive) | > 100 µM (inactive) | > 100 µM (inactive) | 
Cc1[nH]n(-c2ncc(C(=O)O)c(=O)[nH]2)c(=O)c1CCO | > 100 µM (inactive) | > 100 µM (inactive) | > 100 µM (inactive) | > 88.9 µM (inactive) | > 100 µM (inactive) | > 100 µM (inactive) |  | > 100 µM (inactive) | > 100 µM (inactive) | > 100 µM (inactive) | > 100 µM (inactive) | > 100 µM (inactive) | > 75.7 µM (inactive) |  | > 100 µM (inactive) | > 100 µM (inactive) | > 100 µM (inactive) | > 100 µM (inactive) | > 100 µM (inactive) | > 37 µM (inactive)
O=C1c2cc(I)ccc2N2CCN=C2N1Cc1ccccc1 | > 100 µM (inactive) | > 100 µM (inactive) | > 100 µM (inactive) | > 100 µM (inactive) | > 100 µM (inactive) | 49.5 µM (inactive) |  | > 100 µM (inactive) | > 100 µM (inactive) | > 100 µM (inactive) | 96.6 µM (inactive) | 55 µM (inactive) | > 100 µM (inactive) |  | 92.7 µM (inactive) | 47.4 µM (inactive) | 4.46 µM (inactive) | 0.723 µM (active) | > 100 µM (inactive) | 84.5 µM (inactive)
O=C1OC(CC(=O)c2ccc(Cl)c(Cl)c2)C(Cl)=C1Cl (stereo not drawn) |  | > 100 µM (inactive) | > 100 µM (inactive) | > 100 µM (inactive) | > 100 µM (inactive) | > 100 µM (inactive) | 52.6 µM (inactive) | > 100 µM (inactive) | > 100 µM (inactive) | > 100 µM (inactive) | > 100 µM (inactive) | > 100 µM (inactive) | > 100 µM (inactive) |  | > 100 µM (inactive) | > 100 µM (inactive) | 38.7 µM (inactive) | 31.2 µM (inactive) | > 100 µM (inactive) | 
Nn1c(-c2ccccc2Cl)nc2ccccc2c1=O | > 100 µM (inactive) | > 100 µM (inactive) | > 100 µM (inactive) | > 100 µM (inactive) |  | > 100 µM (inactive) | > 100 µM (inactive) | > 100 µM (inactive) | > 100 µM (inactive) | > 100 µM (inactive) | > 100 µM (inactive) | > 100 µM (inactive) | > 100 µM (inactive) | > 100 µM (inactive) | > 100 µM (inactive) | > 100 µM (inactive) | > 100 µM (inactive) | > 100 µM (inactive) | > 100 µM (inactive) | 
CN1C/C(=C\c2cccs2)C2=NC(=S)NC(c3cccs3)C2C1 (stereo not drawn) | 64.4 µM (inactive) | 55.2 µM (inactive) | 61.4 µM (inactive) | 31.8 µM (inactive) | 67.9 µM (inactive) | > 100 µM (inactive) |  | 36.6 µM (inactive) | > 100 µM (inactive) | 77.6 µM (inactive) | > 100 µM (inactive) | 40.7 µM (inactive) | 50.6 µM (inactive) |  | 29.9 µM (inactive) | > 100 µM (inactive) | 19.5 µM (inactive) | 61.8 µM (inactive) | 33.6 µM (inactive) | 18.2 µM (inactive)
CN(C)CCN(c1ccccn1)c1ccccn1 | > 100 µM (inactive) | > 100 µM (inactive) | > 100 µM (inactive) | > 100 µM (inactive) | > 100 µM (inactive) | > 100 µM (inactive) |  | > 100 µM (inactive) | > 100 µM (inactive) | > 100 µM (inactive) | > 100 µM (inactive) | > 100 µM (inactive) | > 100 µM (inactive) |  | > 100 µM (inactive) | > 100 µM (inactive) | > 100 µM (inactive) | > 100 µM (inactive) | > 100 µM (inactive) | > 100 µM (inactive)
O=C1/C(=N/CCc2cc(Br)c(O)c(Br)c2)C=C(O)c2cccnc21 | 2.46 µM (inactive) | 1.31 µM (inactive) | 2.19 µM (inactive) | 1.75 µM (inactive) | 0.634 µM (active) | 1.93 µM (inactive) |  | 1.37 µM (inactive) | 1.35 µM (inactive) | 0.502 µM (active) | 2.22 µM (inactive) | 4.38 µM (inactive) | 1.17 µM (inactive) |  | 2.82 µM (inactive) | 7.26 µM (inactive) | 6.75 µM (inactive) | 3.08 µM (inactive) | 1.24 µM (inactive) | 0.771 µM (active)
CCc1nc(N)nc(N)c1-c1ccc([N+](C)(C)C)cc1 | > 100 µM (inactive) | > 100 µM (inactive) | > 100 µM (inactive) | > 100 µM (inactive) | > 100 µM (inactive) | > 100 µM (inactive) |  | > 100 µM (inactive) | > 100 µM (inactive) | > 100 µM (inactive) | > 100 µM (inactive) | > 100 µM (inactive) | > 90.2 µM (inactive) |  | > 100 µM (inactive) | > 100 µM (inactive) | > 100 µM (inactive) | > 100 µM (inactive) | > 100 µM (inactive) | > 100 µM (inactive)
